Results taken from patent US12558428B2, “Heterobifunctional compounds and their use in treating disease” (Halda Therapeutics OpCo, Inc., priority 2024, dated 2026).
Like-named read-outs stand apart in the source and are kept apart here.

How the values were obtained:
Format in all cases: cell-based
[1] = tested on: MCF7 cells (ATCC #HTB-22); experiment: Cellular growth inhibition assay, MCF7 cells purchased from ATCC; details: Homo sapiens, MCF7, 144 h, Table 8-A; MCF7 cells purchased from ATCC; six days; CellTiter-Glo; read-out: GI50
Summary of the method: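 MCF7 cells in RPMI 1640 with 10% FBS and 0.2 U/ml insulin, seeded at 1,500 cells/well (ATCC) or 225 cells/well (ECACC). Compounds added 24 h later, then 6 days at 37° C. Viability by CellTiter-Glo 2.0 luminescence. GI50 from four-parameter fit.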

[2] = tested on: T-Rex 293 cells having increased expression of estrogen receptor alpha protein; experiment: Cellular growth inhibition assay, T-Rex 293 cells, (+) doxycycline; details: T-REx-293, 72 h, T-Rex 293 cells with doxycycline (increased ERα expression), 72 hours, CellTiter-Glo, read-out: (+) Dox GI50
Summary of the method: (§1)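 ERα overexpression was switched on by 3 ng/mL doxycycline in a stably transfected T-Rex 293 clone, while uninduced cells served as the comparison line. Proliferation over 72 h of compound treatment was assessed by ATP luminescence, and GI50 values came from four-parameter curves.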

[3] = tested on: T-Rex 293 cells lacking increased expression of estrogen receptor alpha protein; experiment: Cellular growth inhibition assay, T-Rex 293 cells, (−) doxycycline; details: T-REx-293, 72 h, T-Rex 293 cells without doxycycline (lacking increased ERα expression), 72 hours, CellTiter-Glo, read-out: (−) Dox GI50
Summary of the method: as §1

SMILES	GI50 [1] [nM]	GI50 ([2]; Table 7-A) [nM]	GI50 ([3]; Table 7-A) [nM]	GI50 ([2]; Table 7-B) [nM]	GI50 ([3]; Table 7-B) [nM]
CC1=C(c2c(F)cc(F)cc2F)[C@@H](c2ccc(OCC(=O)N3CCC4(CC3)CCN(c3ccc(C5=N[C@@H](C)c6nnc(C)n6-c6sc(C)c(C)c65)cc3)C4)cc2)Oc2ccc(O)cc21 [V-26]	50 to 500	< 50	50 to 500		
CC1=C(c2c(F)cc(F)cc2F)[C@H](c2ccc(OCC(=O)N3CCC4(CC3)CCN(c3ccc(C5=N[C@@H](C)c6nnc(C)n6-c6sc(C)c(C)c65)cc3)C4)cc2)Oc2ccc(O)cc21 [V-27]	50 to 500	< 50	500 to 2500		
CC1=C(c2c(F)cc(F)cc2F)C(c2ccc(N3CCN(CC4(O)CCN(c5ccc(C6=N[C@@H](C)c7nnc(C)n7-c7sc(C)c(C)c76)cc5)CC4)CC3)cc2)Oc2ccc(O)cc21 (stereo partly drawn) [V-28]	< 50	< 50	50 to 500		
CC1=C(c2c(F)cc(F)cc2F)[C@@H](c2ccc(OCC(=O)N3CCCC4(CCN(c5ccc(C6=N[C@@H](C)c7nnc(C)n7-c7sc(C)c(C)c76)cc5)C4)C3)cc2)Oc2ccc(O)cc21 (stereo partly drawn) [V-29]	50 to 500	50 to 500	50 to 500		
CC1=C(c2c(F)cc(F)cc2F)[C@H](c2ccc(OCC(=O)N3CCCC4(CCN(c5ccc(C6=N[C@@H](C)c7nnc(C)n7-c7sc(C)c(C)c76)cc5)C4)C3)cc2)Oc2ccc(O)cc21 (stereo partly drawn) [V-30]	50 to 500	50 to 500	50 to 500		
CC1=C(c2c(F)cc(F)cc2F)[C@H](c2ccc(C3CCN(CC4(O)CCN(c5ccc(C6=N[C@@H](C)c7nnc(C)n7-c7sc(C)c(C)c76)cc5)CC4)CC3)cc2)Oc2ccc(O)cc21 [V-31]	50 to 500	< 50	50 to 500		
CC1=C(c2c(F)cc(F)cc2F)[C@@H](c2ccc(C3CCN(CC4(O)CCN(c5ccc(C6=N[C@@H](C)c7nnc(C)n7-c7sc(C)c(C)c76)cc5)CC4)CC3)cc2)Oc2ccc(O)cc21 [V-32]	50 to 500	< 50	500 to 2500		
CC1=C(c2c(F)cc(F)cc2F)[C@H](c2ccc(OCC(=O)N3CCCC4(CCN(c5ccc(C6=N[C@@H](Cc7ncco7)c7nnc(C)n7-c7sc(C)c(C)c76)cc5)C4)C3)cc2)Oc2ccc(O)cc21 (stereo partly drawn) [V-33]	50 to 500	< 50	50 to 500		
CC1=C(c2c(F)cc(F)cc2F)[C@@H](c2ccc(OCC(=O)N3CCCC4(CCN(c5ccc(C6=N[C@@H](Cc7ncco7)c7nnc(C)n7-c7sc(C)c(C)c76)cc5)C4)C3)cc2)Oc2ccc(O)cc21 (stereo partly drawn) [V-34]	50 to 500	50 to 500	50 to 500		
CC1=C(c2c(F)cc(F)cc2F)[C@H](c2ccc(N3CC(CN4CCN(CC5CN(c6ccc(C7=N[C@@H](C)c8nnc(C)n8-c8sc(C)c(C)c87)cc6)C5)CC4)C3)cc2)Oc2ccc(O)cc21 [V-35]	< 50	< 50	50 to 500		
CC1=C(c2c(F)cc(F)cc2F)[C@@H](c2ccc(N3CC(CN4CCN(CC5CN(c6ccc(C7=N[C@@H](C)c8nnc(C)n8-c8sc(C)c(C)c87)cc6)C5)CC4)C3)cc2)Oc2ccc(O)cc21 [V-36]	50 to 500	< 50	500 to 2500		
Cc1cc(N2CCC(O)(CN3CCN(c4cc(F)c([C@@H]5c6ccc(O)cc6CC[C@@H]5c5ccccc5)cc4F)CC3)CC2)ccc1Oc1ccc(C(C)(C)O)cc1-c1cn(C)c(=O)c2[nH]ccc12 [V-37]	< 50			< 50	500 to 2500
Cc1cc(N2CCC(O)(CN3CCN(c4cc(F)c([C@H]5c6ccc(O)cc6CC[C@H]5c5ccccc5)cc4F)CC3)CC2)ccc1Oc1ccc(C(C)(C)O)cc1-c1cn(C)c(=O)c2[nH]ccc12 [V-38]	50 to 500			50 to 500	50 to 500
Cc1cc(N2CCC(O)(CN3CCN(c4ccc([C@@H]5c6ccc(O)cc6CC[C@@H]5c5ccc(F)cc5F)cc4)CC3)CC2)ccc1Oc1ccc(C(C)(C)O)cc1-c1cn(C)c(=O)c2[nH]ccc12 [V-39]	50 to 500			50 to 500	50 to 500
Cc1cc(N2CCC(O)(CN3CCN(c4ccc([C@H]5c6ccc(O)cc6CC[C@H]5c5ccc(F)cc5F)cc4)CC3)CC2)ccc1Oc1ccc(C(C)(C)O)cc1-c1cn(C)c(=O)c2[nH]ccc12 [V-40]	< 50			< 50	500 to 2500
